The values below come from patent US20150353495A1 (PORTOLA PHARMACEUTICALS, INC., priority 2010, published 2015).

What all share (type): biochemical
For one assay, the target named is T1, JAK1 (Homo sapiens, UniProt P23458).
T1 construct: 5 μl of catalytic domain recombinant Kinase enzyme+Tyr peptide substrate (Invitrogen, CA); purchased Invitrogen
Kind of assay: Z'-LYTE kinase assay JAK1. An outline of the steps: (§1)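 In duplicate wells, each test molecule (1% final DMSO) is incubated with recombinant kinase catalytic domain, Tyr6 peptide substrate and ATP for one hour at room temperature; a site-specific protease is then added for another hour before fluorescence reading.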

A further assay concerns the target T2, JAK2 (Homo sapiens, UniProt O60674).
T2 construct: 5 μl of catalytic domain recombinant Kinase enzyme+Tyr peptide substrate (Invitrogen, CA); purchased Invitrogen
Nature of the assay: Z'-LYTE kinase assay JAK2. A digest of the protocol: as §1

For the next assay, the target named is T3, JAK3 (Homo sapiens, UniProt P52333).
T3 construct: 5 μl of catalytic domain recombinant Kinase enzyme+Tyr peptide substrate (Invitrogen, CA); purchased Invitrogen
T3 sequence (P52333 822-1111 limits assumed): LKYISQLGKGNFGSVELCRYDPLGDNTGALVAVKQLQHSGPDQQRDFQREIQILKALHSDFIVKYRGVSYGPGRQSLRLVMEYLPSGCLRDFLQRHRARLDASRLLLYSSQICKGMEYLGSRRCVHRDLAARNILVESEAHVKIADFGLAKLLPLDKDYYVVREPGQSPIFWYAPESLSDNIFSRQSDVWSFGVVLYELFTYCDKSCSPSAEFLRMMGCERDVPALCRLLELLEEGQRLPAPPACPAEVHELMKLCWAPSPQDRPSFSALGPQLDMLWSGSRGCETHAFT
Kind of assay: Z'-LYTE kinase assay JAK3. A digest of the protocol:
as §1

The structures appear in SMILES notation.

T2 sequence (O60674 849-1124 limits assumed): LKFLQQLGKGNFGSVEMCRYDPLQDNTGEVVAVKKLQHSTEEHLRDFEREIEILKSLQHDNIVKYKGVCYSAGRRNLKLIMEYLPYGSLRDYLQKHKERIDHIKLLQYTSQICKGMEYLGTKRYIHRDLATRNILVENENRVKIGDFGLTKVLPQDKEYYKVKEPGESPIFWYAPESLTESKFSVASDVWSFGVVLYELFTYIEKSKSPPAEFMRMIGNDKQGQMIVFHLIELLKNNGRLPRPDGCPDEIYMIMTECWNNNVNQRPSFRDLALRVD
T1 sequence (P23458 875-1153 limits assumed): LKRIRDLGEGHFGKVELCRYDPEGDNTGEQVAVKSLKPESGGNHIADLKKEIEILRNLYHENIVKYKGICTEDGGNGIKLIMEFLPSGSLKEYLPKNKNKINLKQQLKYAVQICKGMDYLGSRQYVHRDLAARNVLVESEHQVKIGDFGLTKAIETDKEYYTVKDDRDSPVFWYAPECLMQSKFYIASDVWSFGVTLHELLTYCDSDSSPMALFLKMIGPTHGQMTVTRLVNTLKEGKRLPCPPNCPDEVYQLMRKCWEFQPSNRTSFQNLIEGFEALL

A word on the IC50: it is the concentration needed to halve the response being measured. Read a low IC50 as inhibition by little substance. Take `CCC(=O)N1CCC[C@H](CNc2cc(Nc3ccc(OC)cc3)ncc2C(N)=O)C1` [Example 271, (R)-6-(4-methoxyphenylamino)-4-((1-propionylpiperidin-3-yl)methylamino)nicotinamide]: the values for the IC50 on JAK1, at JAK2 and on JAK3 were above 1000 nM, above 1000 nM and 10 to 100 nM, respectively.
Take `NC(=O)c1cnc(Nc2ccc(F)c(C(=O)N3CCC3)c2)cc1NCc1ccccc1` [Example 439, 6-(3-(azetidine-1-carbonyl)-4-fluorophenylamino)-4-(benzylamino)nicotinamide]: the IC50 was in the range of 100 to 1000 nM on JAK1, 100 to 1000 nM on JAK2 and 10 to 100 nM against JAK3.
Turning to `NC(=O)c1cnc(Nc2cccc(F)c2)cc1NCc1cncc(F)c1` [Example 306, 6-(3-fluorophenylamino)-4-((5-fluoropyridin-3-yl)methylamino)nicotinamide], the half-inhibitory concentration (IC50) against JAK1 fell in the range of 100 to 1000 nM; at JAK2 it was 100 to 1000 nM; against JAK3, 10 to 100 nM.
Regarding `NC(=O)c1cnc(Nc2ccc(N3CCCCC3)cc2)cc1NC1(c2ccccc2)CC1` [Example 362], the figures for the IC50 against JAK1, against JAK2 and against JAK3 were above 1000 nM, above 1000 nM and 10 to 100 nM, respectively.
In the case of `NC(=O)c1cnc(Nc2cccc(C3CCOCC3)c2)cc1NCc1cccc(F)c1` [Example 204, 4-(3-fluorobenzylamino)-6-(3-(tetrahydro-2H-pyran-4-yl)phenylamino)nicotinamide], the results for the 50% inhibitory concentration (IC50) against JAK1, on JAK2 and on JAK3 were 100 to 1000 nM, 10 to 100 nM and 1 to 10 nM, respectively.
The corresponding values for `CN(C)C(=O)c1ccc(Nc2cc(NCc3cccc4ccn(C)c34)c(C(N)=O)cn2)cc1` [Example 318, 6-(4-(dimethylcarbamoyl)phenylamino)-4-((1-methyl-1H-indol-7-yl)methylamino)nicotinamide] are above 1000 nM, 100 to 1000 nM and 10 to 100 nM.
The corresponding values for `CC(=O)NCc1ccc(Nc2cc(NCc3cccc4ccsc34)c(C(N)=O)cn2)cc1` [Example 352, 6-(4-(acetamidomethyl)phenylamino)-4-(benzo[b]thiophen-7-ylmethylamino)nicotinamide] are 10 to 100 nM, 10 to 100 nM and 1 to 10 nM.
The corresponding values for `NC(=O)c1cnc(Nc2ccc(C3CNC3)cc2)cc1NCc1ccccc1` [Example 325, 6-(4-(azetidin-3-yl)phenylamino)-4-(benzylamino)nicotinamide] are above 1000 nM, 100 to 1000 nM and 1 to 10 nM.
Consider `CC(=O)Nc1ccc(Nc2cc(NCc3cccc(F)n3)c(C(N)=O)cn2)cc1` [Example 486, 6-(4-acetamidophenylamino)-4-((6-fluoropyridin-2-yl)methylamino)nicotinamide], for which the results for the IC50 against JAK1, against JAK2 and at JAK3 were 100 to 1000 nM, 100 to 1000 nM and 10 to 100 nM, respectively.
As to `CCC(=O)N1CCC(c2ccc(Nc3cc(N[C@H](C)C4CCCCC4)c(C(N)=O)cn3)cc2)CC1` [Example 191, (R)-4-(1-cyclohexylethylamino)-6-(4-(1-propionylpiperidin-4-yl)phenylamino)nicotinamide], the 50% inhibitory concentration (IC50) at JAK1 was above 1000 nM; against JAK2, above 1000 nM; against JAK3 it was 100 to 1000 nM.
For the compound `CN(C)S(=O)(=O)N(C)c1ccc(Nc2cc(NCc3ccccc3)c(C(N)=O)cn2)cc1` [Example 268, 4-(benzylamino)-6-(4-((N,N-dimethylsulfamoyl)(methyl)amino)phenylamino)nicotinamide], the half-inhibitory concentration (IC50) on JAK1 was in the range of 100 to 1000 nM; at JAK2, 100 to 1000 nM; against JAK3 it was 10 to 100 nM.
With `CS(=O)(=O)N1CCC(CNc2cc(Nc3ccc(C4CCOCC4)cc3)ncc2C(N)=O)CC1` [Example 159, 4-((1-(methylsulfonyl)piperidin-4-yl)methylamino)-6-(4-(tetrahydro-2H-pyran-4-yl)phenylamino)nicotinamide], the results for the concentration for half-maximal inhibition (IC50) against JAK1, against JAK2 and at JAK3 were above 1000 nM, above 1000 nM and 100 to 1000 nM, respectively.
For the compound `NC(=O)c1cnc(Nc2cccc(C3CCOCC3)c2)cc1NCc1cc(F)cc(F)c1` [Example 206, 4-(3,5-difluorobenzylamino)-6-(3-(tetrahydro-2H-pyran-4-yl)phenylamino)nicotinamide], the IC50 against JAK1 lay within 100 to 1000 nM; against JAK2, 10 to 100 nM; at JAK3 it was 1 to 10 nM.
As for `COc1ccc(Nc2cc(NCc3ccccc3)c(C(N)=O)cn2)cc1C` [Example 279, 4-(benzylamino)-6-(4-methoxy-3-methylphenylamino)nicotinamide], the IC50 against JAK1 was above 1000 nM; against JAK2, above 1000 nM; against JAK3 it was 10 to 100 nM.
Turning to `COc1ccc(Nc2cc(NC[C@H]3CCCN(S(C)(=O)=O)C3)c(C(N)=O)cn2)cc1` [Example 57, (R)-6-(4-methoxyphenylamino)-4-((1-(methylsulfonyl)piperidin-3-yl)methylamino)nicotinamide], the IC50 on JAK1 was above 1000 nM; against JAK2 it was 100 to 1000 nM; at JAK3 it was 10 to 100 nM.
In the case of `COC(=O)N(C)c1ccc(Nc2cc(NCc3cccc4cc[nH]c34)c(C(N)=O)cn2)cc1` [Example 482, methyl 4-(4-((1H-indol-7-yl)methylamino)-5-carbamoylpyridin-2-ylamino)phenyl(methyl)carbamate], the results for the IC50 on JAK1, on JAK2 and against JAK3 were above 1000 nM, above 1000 nM and 10 to 100 nM, respectively.
Regarding `NC(=O)c1cnc(Nc2ccc(C3CCN(S(=O)(=O)C4CC4)CC3)cc2)cc1NCc1ccccc1F` [Example 113, 6-(4-(1-(cyclopropylsulfonyl)piperidin-4-yl)phenylamino)-4-(2-fluorobenzylamino)nicotinamide], the figures for the half-maximal inhibitory concentration (IC50) on JAK1, on JAK2 and at JAK3 were above 1000 nM, above 1000 nM and 10 to 100 nM, respectively.
Regarding `CN(C)CC(C)(C)CNc1cc(Nc2ccc(C3CCOCC3)cc2)ncc1C(N)=O` [Example 171, 4-(3-(dimethylamino)-2,2-dimethylpropylamino)-6-(4-(tetrahydro-2H-pyran-4-yl)phenylamino)nicotinamide], the figures for the IC50 against JAK1, on JAK2 and against JAK3 were above 1000 nM, above 1000 nM and 100 to 1000 nM, respectively.
In the case of `CC(=O)N(C)c1ccc(Nc2cc(NCc3cccc(F)n3)c(C(N)=O)cn2)cc1` [Example 485, 4-((6-fluoropyridin-2-yl)methylamino)-6-(4-(N-methylacetamido)phenylamino)nicotinamide], the results for the IC50 on JAK1, against JAK2 and against JAK3 were above 1000 nM, 100 to 1000 nM and 10 to 100 nM, respectively.
The corresponding values for `Cn1cc(CNc2cc(Nc3ccc(C4CCOCC4)cc3)ncc2C(N)=O)cn1` [Example 173, 4-((1-methyl-1H-pyrazol-4-yl)methylamino)-6-(4-(tetrahydro-2H-pyran-4-yl)phenylamino)nicotinamide] are above 1000 nM, above 1000 nM and 100 to 1000 nM.
The corresponding values for `CN(C)C(=O)c1ccc(Nc2cc(NCc3ccccc3)c(C(N)=O)cn2)cc1F` [Example 273, 4-(benzylamino)-6-(4-(dimethylcarbamoyl)-3-fluorophenylamino)nicotinamide] are above 1000 nM, 100 to 1000 nM and 10 to 100 nM.
In the case of `CCS(=O)(=O)N1CCC(CNc2cc(Nc3ccc(C4CCOCC4)cc3)ncc2C(N)=O)CC1` [Example 160, 4-((1-(ethylsulfonyl)piperidin-4-yl)methylamino)-6-(4-(tetrahydro-2H-pyran-4-yl)phenylamino)nicotinamide], the IC50 against JAK1, against JAK2 and against JAK3 was above 1000 nM in each case.
Regarding `NC(=O)c1cnc(Nc2ccc(CC(=O)N3CCCC3)cc2)cc1NCc1ccccc1` [Example 329, 4-(benzylamino)-6-(4-(2-oxo-2-(pyrrolidin-1-yl)ethyl)phenylamino)nicotinamide], the values for the IC50 against JAK1, on JAK2 and against JAK3 were 100 to 1000 nM, 100 to 1000 nM and 1 to 10 nM, respectively.
Take `NC(=O)c1cnc(Nc2ccc(C3CCOCC3)cc2)cc1NCC1(O)CCCC1` [Example 141, 4-((1-hydroxycyclopentyl)methylamino)-6-(4-(tetrahydro-2H-pyran-4-yl)phenylamino)nicotinamide]: the values for the IC50 on JAK1, on JAK2 and against JAK3 were above 1000 nM, 100 to 1000 nM and 10 to 100 nM, respectively.
The corresponding values for `CS(=O)(=O)Cc1ccc(Nc2cc(NCc3cccc4[nH]ccc34)c(C(N)=O)cn2)cc1` [Example 348, 4-((1H-indol-4-yl)methylamino)-6-(4-(methylsulfonylmethyl)phenylamino)nicotinamide] are 1 to 10 nM, 1 to 10 nM and below 1 nM.
The corresponding values for `NC(=O)c1cnc(Nc2cccc(CN3CCOCC3)c2)cc1NC1(c2ccccc2)CC1` [Example 129, 6-(3-(morpholinomethyl)phenylamino)-4-(1-phenylcyclopropylamino)nicotinamide] are above 1000 nM, 100 to 1000 nM and 10 to 100 nM.
Take `NC(=O)c1cnc(Nc2ccc(C3CCOCC3)cc2)cc1NCc1nccs1` [Example 172, 6-(4-(tetrahydro-2H-pyran-4-yl)phenylamino)-4-(thiazol-2-ylmethylamino)nicotinamide]: the figures for the IC50 against JAK1, at JAK2 and on JAK3 were 100 to 1000 nM, 100 to 1000 nM and 10 to 100 nM, respectively.
With `NC(=O)c1cnc(Nc2ccc(C3CCOCC3)cc2)cc1NCC1CCOCC1` [Example 140, 4-((tetrahydro-2H-pyran-4-yl)methylamino)-6-(4-(tetrahydro-2H-pyran-4-yl)phenylamino)nicotinamide], the values for the IC50 against JAK1, against JAK2 and on JAK3 were above 1000 nM, 100 to 1000 nM and 100 to 1000 nM, respectively.
Regarding `CCC(=O)N1CCC(Nc2cc(Nc3ccc(C4CCOCC4)cc3)ncc2C(N)=O)CC1` [Example 164, 4-(1-propionylpiperidin-4-ylamino)-6-(4-(tetrahydro-2H-pyran-4-yl)phenylamino)nicotinamide], the IC50 against JAK1, against JAK2 and against JAK3 was above 1000 nM in each case.
